Laboratory results reported in the supplement of paper PMC6045584.

Columns and labels:
Assay in all cases: area under dose-response curve of surviving fraction (unscaled, Aref=0) (surviving fraction x log10(nM)); higher = more resistant
Conditions in all cases: exposure time: 5 days; dose range 0.5-1000 nM
AFIMOXIFENE = compound: CC/C(=C(\c1ccc(O)cc1)c1ccc(OCCN(C)C)cc1)c1ccccc1 [AFIMOXIFENE]
Summary of the method: (§1)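 Tumour cell lines in 384-well plates were exposed for five days to eight inhibitor concentrations from 0.5 to 1000 nM. Viability was read by CellTiter-Glo luminescence, normalised to DMSO-only wells, in three screens per line. Dose-response survival curves were fitted to surviving fractions by 3-parameter logistic regression in the drc R package. Area under the curve is the unscaled activity area (Aref = 0) over log10 dose.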

[1] = compound: C[C@H](CN(C)C)Oc1nc(Nc2cc3cccc(Cl)c3cn2)cnc1C#N
Summary of the method: as §1

IMATINIB = compound: Cc1ccc(NC(=O)c2ccc(CN3CCN(C)CC3)cc2)cc1Nc1nccc(-c2cccnc2)n1 [IMATINIB]
Summary of the method: as §1

[2] = compound: C[C@@H]1CN(CC(=O)Nc2ccc3c(c2)Cc2cccc(-c4cc(=O)cc(N5CCOCC5)o4)c2S3)C[C@H](C)O1
Summary of the method: as §1

BMN-673 = compound: Cn1ncnc1[C@H]1c2n[nH]c(=O)c3cc(F)cc(c23)N[C@@H]1c1ccc(F)cc1 [BMN-673]
Summary of the method: as §1

[3] = compound: COc1ccc(-c2cc3c(C)nc(N)nc3n([C@H]3CC[C@H](OCCO)CC3)c2=O)cn1
Summary of the method: as §1

BEZ-235 = compound: Cn1c(=O)n(-c2ccc(C(C)(C)C#N)cc2)c2c3cc(-c4cnc5ccccc5c4)ccc3ncc21 [BEZ-235]
Summary of the method: as §1

[4] = compound: CCc1cc(Nc2nccc(-c3c(-c4ccc(OC)c(C(=O)Nc5c(F)cccc5F)c4)nc4ccccn34)n2)c(OC)cc1N1CCC(N2CCN(S(C)(=O)=O)CC2)CC1
Summary of the method: as §1

BLEOMYCIN = compound: Cc1c(N)nc([C@H](CC(N)=O)NC[C@H](N)C(N)=O)nc1C(=O)N[C@H](C(=O)N[C@H](C)[C@@H](O)[C@H](C)C(=O)N[C@H](C(=O)NCCc1nc(-c2nc(C(=O)NCCC[S+](C)C)cs2)cs1)[C@@H](C)O)[C@@H](OC1OC(CO)C(O)C(O)C1OC1OC(CO)C(O)C(OC(N)=O)C1O)c1cnc[nH]1 [BLEOMYCIN]
Summary of the method: as §1

CABOZANTINIB = compound: COc1cc2nccc(Oc3ccc(NC(=O)C4(C(=O)Nc5ccc(F)cc5)CC4)cc3)c2cc1OC [CABOZANTINIB]
Summary of the method: as §1

VORINOSTAT = compound: O=C(CCCCCCC(=O)Nc1ccccc1)NO [VORINOSTAT]
Summary of the method: as §1

LENVATINIB = compound: COc1cc2nccc(Oc3ccc(NC(=O)NC4CC4)c(Cl)c3)c2cc1C(N)=O [LENVATINIB]
Summary of the method: as §1

MK-1775 = compound: C=CCn1c(=O)c2cnc(Nc3ccc(N4CCN(C)CC4)cc3)nc2n1-c1cccc(C(C)(C)O)n1 [MK-1775]
Summary of the method: as §1

NILOTINIB = compound: Cc1cn(-c2cc(NC(=O)c3ccc(C)c(Nc4nccc(-c5cccnc5)n4)c3)cc(C(F)(F)F)c2)cn1 [NILOTINIB]
Summary of the method: as §1

Test System | area under dose-response curve (AFIMOXIFENE) | area under dose-response curve [1] | area under dose-response curve (IMATINIB) | area under dose-response curve [2] | area under dose-response curve (BMN-673) | area under dose-response curve [3] | area under dose-response curve (BEZ-235) | area under dose-response curve [4] | area under dose-response curve (BLEOMYCIN) | area under dose-response curve (CABOZANTINIB) | area under dose-response curve (VORINOSTAT) | area under dose-response curve (LENVATINIB) | area under dose-response curve (MK-1775) | area under dose-response curve (NILOTINIB)
HCC78 LUNG | 3.19 | 2.74 | 3.61 | 3.9 | 2.26 | 1.41 | 2.2 | 2.74 | 1.97 | 1.8 | 2.95 | 3.39 | 2.58 | –
CASKI CERVIX | 3.25 | 2.76 | 3.28 | 2.98 | 2.72 | 1.97 | 1.99 | 3.15 | 1.94 | 3.03 | 2.94 | 3.28 | 2 | 2.97
LNCAP PROSTATE | 3.37 | 2.72 | 3.3 | 4.03 | 1.43 | 1.49 | 1.95 | 2.98 | – | 3.11 | 2.63 | 3.21 | 2.42 | 3.62
JURKAT HAEMATOPOIETIC AND LYMPHOID TISSUE | 3.27 | 2.99 | 3.38 | 3.48 | 2.15 | 2.42 | 2.43 | 3.28 | 2.64 | 3.38 | 3.06 | 3.38 | 2.46 | 3.46
MHM BONE | 3.46 | 3.43 | 3.51 | 3.5 | 3.2 | 2.79 | 2.85 | 3.29 | 3.06 | 3.23 | 3.28 | 3.4 | 3.12 | 3.6
COLO320DM LARGE INTESTINE | 3.71 | 2.74 | 3.72 | 3.46 | 2.75 | 2.16 | 2.61 | 3.7 | 3.13 | 3.68 | 3.04 | 3.67 | 2.44 | –
HU09 BONE | 3.44 | 2.89 | 2.91 | 3.39 | 2.02 | 1.71 | 2.26 | – | 2.58 | 2.66 | 3.08 | 2.42 | 2.34 | 2.76
SKBR3 BREAST | 3.71 | 3.03 | 3.66 | 3.21 | 2.55 | 1.77 | 2.41 | – | 2.72 | 3.38 | 3 | 3.48 | 2.64 | 2.88
MDAMB361 BREAST | 2.82 | 2.21 | 2.84 | 2.33 | 2.66 | 2.3 | 2.44 | 3.05 | 2.67 | 2.85 | 2.51 | 2.97 | 2.29 | 2.19
ASKA SYNOVIAL | 3.82 | 2.79 | 3.79 | 3.87 | 1.83 | 2 | 2.61 | 3.91 | 2.57 | 3.68 | 3.14 | 3.69 | 2.32 | 3.26
SIHA CERVIX | 3.74 | 3.45 | 3.68 | 3.5 | 2.87 | 2.34 | 2.36 | 3.53 | – | 3.04 | 3.58 | 3.63 | 2.93 | 3.47
SYO1 SYNOVIAL | 3.24 | 2.54 | 3.02 | 3.18 | 0.997 | 1.95 | 2.23 | 3.07 | 1.65 | 2.68 | 3.02 | 2.56 | 2.27 | 2.99
HT1080 SOFT TISSUE | 3.48 | 3.08 | 3.5 | 3.27 | 1.71 | 2.54 | 2.35 | 3.37 | 2.57 | 3.29 | 3.01 | 3.31 | 2.2 | 3.28
MCF7 BREAST | 2.96 | 2.75 | 3.28 | 3.09 | 2.58 | 1.93 | 2.35 | 2.85 | 2.65 | 2.91 | 2.74 | 3.12 | 2.74 | 3.12
NY BONE | 3.43 | 2.58 | – | 3.49 | 2.86 | 2.35 | 2.76 | – | 2.43 | 3.07 | 3.06 | 3.21 | 2.18 | 3.51
PCI30 HEADNECK | 3.49 | 2.74 | 3.49 | 3.24 | 2.82 | 2.34 | 2.54 | 3.27 | 2.41 | 3.08 | 3.21 | 3.61 | 2.58 | –
SCC47 HEADNECK | 4.16 | 3.17 | 3.94 | 3.53 | – | 2.79 | 2.85 | 3.42 | 2.59 | 3.26 | 3.47 | 3.62 | 2.55 | 3.44
SUM159 BREAST | 3.67 | 3.44 | 3.7 | 3.65 | 3.52 | 2.51 | 2.52 | – | 3.01 | 3.29 | 3.01 | 3.64 | 3.08 | 3.57
MDAMB134 BREAST | 3.63 | 2.31 | 3.48 | 2.76 | 3.21 | 2.33 | 2.79 | – | 2.52 | 3.19 | 2.92 | 3.62 | – | 2.75
H23 LUNG | 3.5 | 3.29 | 3.56 | 3.59 | 2.65 | 1.86 | 2.16 | – | 1.99 | 3.11 | 3.81 | 3.58 | 2.55 | 3.78
